Target: PspF1-275 (Escherichia coli, UniProt P37344)
Conditions: 10 μM protein, pH 8.0, on ice; labelled compound; comparative control

PspF1-275, sequence (P37344 1-275): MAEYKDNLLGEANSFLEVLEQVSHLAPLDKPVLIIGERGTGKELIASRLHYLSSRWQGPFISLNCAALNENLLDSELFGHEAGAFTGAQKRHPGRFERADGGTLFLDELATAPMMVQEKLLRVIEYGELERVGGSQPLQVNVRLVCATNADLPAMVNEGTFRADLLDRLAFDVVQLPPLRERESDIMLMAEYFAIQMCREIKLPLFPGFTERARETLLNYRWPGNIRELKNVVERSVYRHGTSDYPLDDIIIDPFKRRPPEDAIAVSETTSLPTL

Compound: Nc1ncnc2c1ncn2[C@@H]1O[C@H](COP(=O)(O)OP(=O)(O)OP(=O)(O)O)[C@@H](O)[C@H]1O [ATP]
- ultraviolet crosslinking of [α-32P]ATP, SDS-PAGE, phosphorimaging: at a level comparable to that of the structurally and functionally characterized EBP PspF
